{"source": "patent EP0275431A1", "about": "“Novel anthracycline derivatives, a process for preparing same and their use as medicaments” (MICROBIAL CHEMISTRY RESEARCH FOUNDATION, priority 1986, dated 1988)", "key": {"[1]": {"experiment": "Solubility in phosphate buffer solution (pH 7.4) at room temperature", "assay_type": "physicochemical", "conditions": "aqueous buffer", "method": "The phosphate buffer solution was prepared by mixing 0.05M potassium dihydrogenphosphate (KH2PO4) with an aqueous solution of sodium hydroxide."}, "[2]": {"system": "mouse leukemia L-1210 cells", "experiment": "Antitumor activity: increase of life span of mice transplanted intraperitoneally with leukemia L-1210 cells", "conditions": "beginning 24 hours after transplantation, observed for 30 days, CDF mice", "protocol": "To assess the antitumor activity of the compounds of this invention against tumors in test animals, 1 x 10^5 mouse leukemia L-1210 cells mouse were transplanted intraperitoneally to CDF, mice. […] The survival time, in days, of the compound-treated group (T) was calculated, and that of the control group (C) receiving physiological saline solution alone was also calculated. Then, the increase of life span (T/C, %) was determined."}, "[3]": {"conditions": "Dose 0.15 mg/kg/day intraperitoneally for 9 consecutive days"}, "[4]": {"conditions": "Dose 0.3 mg/kg/day intraperitoneally for 9 consecutive days"}, "[5]": {"conditions": "Dose 0.6 mg/kg/day intraperitoneally for 9 consecutive days"}, "[6]": {"conditions": "Dose 1.25 mg/kg/day intraperitoneally for 9 consecutive days"}, "[7]": {"conditions": "Dose 2.5 mg/kg/day intraperitoneally for 9 consecutive days"}, "[8]": {"conditions": "Dose 5 mg/kg/day intraperitoneally for 9 consecutive days"}}, "data": [{"smiles": "CCCCC(=O)OCC(=O)C1(O)Cc2c(O)c3c(c(O)c2C(OC2OC(C)C(O)C(O)C2F)C1)C(=O)c1c(OC)cccc1C3=O", "note": "[Compound 3 of Example 1(b), 7-0-(2.6-dideoxy-2-fluoro-α-L-talopyranosyl) adriamycinone 14-0-valerate]", "values": [{"measurement": "solubility", "setting": "[1]", "value": "< 1", "unit": "mg/mL"}, {"measurement": "Increase of life span (T/C, %)", "setting": "[2]; [3]", "value": 135, "unit": "%"}, {"measurement": "Increase of life span (T/C, %)", "setting": "[2]; [4]", "value": 135, "unit": "%"}, {"measurement": "Increase of life span (T/C, %)", "setting": "[2]; [5]", "value": ">353", "unit": "%"}, {"measurement": "Increase of life span (T/C, %)", "setting": "[2]; [6]", "value": ">353", "unit": "%"}, {"measurement": "Increase of life span (T/C, %)", "setting": "[2]; [7]", "value": ">282", "unit": "%"}, {"measurement": "Increase of life span (T/C, %)", "setting": "[2]; [8]", "value": "> 306", "unit": "%"}]}, {"smiles": "COc1cccc2c1C(=O)c1c(O)c3c(c(O)c1C2=O)CC(O)(C(=O)COC(=O)CCC(=O)O)CC3OC1OC(C)C(O)C(O)C1F", "note": "[Compound 5 of Example 2(b), 7-0-(2,6-dideoxy-2-fluoro-a-L-talopyranosyl) adriamycinone 14-0-hemisuccinate]", "values": [{"measurement": "solubility", "setting": "[1]", "value": 25, "unit": "mg/mL"}, {"measurement": "Increase of life span (T/C, %)", "setting": "[2]; [4]", "value": 124, "unit": "%"}, {"measurement": "Increase of life span (T/C, %)", "setting": "[2]; [5]", "value": ">124", "unit": "%"}, {"measurement": "Increase of life span (T/C, %)", "setting": "[2]; [6]", "value": ">292", "unit": "%"}, {"measurement": "Increase of life span (T/C, %)", "setting": "[2]; [7]", "value": ">353", "unit": "%"}, {"measurement": "Increase of life span (T/C, %)", "setting": "[2]; [8]", "value": "> 353", "unit": "%"}]}, {"smiles": "COc1cccc2c1C(=O)c1c(O)c3c(c(O)c1C2=O)CC(O)(C(=O)COC(=O)CCCC(=O)O)CC3OC1OC(C)C(O)C(O)C1F", "note": "[Compound 7 of Example 3(b), 7-0-(2.6-dideoxy-2-fluoro-a-L-talopyranosyl) adriamycinone 14-0-hemiglutarate]", "values": [{"measurement": "solubility", "setting": "[1]", "value": 26, "unit": "mg/mL"}, {"measurement": "Increase of life span (T/C, %)", "setting": "[2]; [3]", "value": 129, "unit": "%"}, {"measurement": "Increase of life span (T/C, %)", "setting": "[2]; [4]", "value": 129, "unit": "%"}, {"measurement": "Increase of life span (T/C, %)", "setting": "[2]; [5]", "value": ">235", "unit": "%"}, {"measurement": "Increase of life span (T/C, %)", "setting": "[2]; [6]", "value": 282, "unit": "%"}, {"measurement": "Increase of life span (T/C, %)", "setting": "[2]; [7]", "value": ">294", "unit": "%"}, {"measurement": "Increase of life span (T/C, %)", "setting": "[2]; [8]", "value": "> 306", "unit": "%"}]}, {"smiles": "COc1cccc2c1C(=O)c1c(O)c3c(c(O)c1C2=O)CC(O)(C(=O)COC(=O)CCCCC(=O)O)CC3OC1OC(C)C(O)C(O)C1F", "note": "[Compound 9 of Example 4(b), 7-0-(2.6-dideoxy-2-fluoro-a-L-talopyranosyl) adriamycinone 14-0-hemiadipate]", "values": [{"measurement": "solubility", "setting": "[1]", "value": 33, "unit": "mg/mL"}, {"measurement": "Increase of life span (T/C, %)", "setting": "[2]; [3]", "value": 112, "unit": "%"}, {"measurement": "Increase of life span (T/C, %)", "setting": "[2]; [4]", "value": 141, "unit": "%"}, {"measurement": "Increase of life span (T/C, %)", "setting": "[2]; [5]", "value": 165, "unit": "%"}, {"measurement": "Increase of life span (T/C, %)", "setting": "[2]; [6]", "value": 265, "unit": "%"}, {"measurement": "Increase of life span (T/C, %)", "setting": "[2]; [7]", "value": ">353", "unit": "%"}, {"measurement": "Increase of life span (T/C, %)", "setting": "[2]; [8]", "value": ">353", "unit": "%"}]}, {"smiles": "COc1cccc2c1C(=O)c1c(O)c3c(c(O)c1C2=O)CC(O)(C(=O)COC(=O)CCCCCC(=O)O)CC3OC1OC(C)C(O)C(O)C1F", "note": "[Compound 11 of Example 5(b), 7-0-(2,6-dideoxy-2-fluoro-α-L-talopyranosyl) adriamycinone 14-0-hemipimelate]", "values": [{"measurement": "solubility", "setting": "[1]", "value": 33, "unit": "mg/mL"}, {"measurement": "Increase of life span (T/C, %)", "setting": "[2]; [3]", "value": 165, "unit": "%"}, {"measurement": "Increase of life span (T/C, %)", "setting": "[2]; [4]", "value": 171, "unit": "%"}, {"measurement": "Increase of life span (T/C, %)", "setting": "[2]; [5]", "value": 176, "unit": "%"}, {"measurement": "Increase of life span (T/C, %)", "setting": "[2]; [6]", "value": ">294", "unit": "%"}, {"measurement": "Increase of life span (T/C, %)", "setting": "[2]; [7]", "value": ">271", "unit": "%"}, {"measurement": "Increase of life span (T/C, %)", "setting": "[2]; [8]", "value": ">353", "unit": "%"}]}, {"smiles": "COc1cccc2c1C(=O)c1c(O)c3c(c(O)c1C2=O)CC(O)(C(=O)COC(=O)CCCCCCC(=O)O)CC3OC1OC(C)C(O)C(O)C1F", "note": "[Compound 13 of Example 6(b), 7-0-(2,6-dideoxy-2-fluoro-α-L-talopyranosyl) adriamycinone 14-0-hemisuberate]", "values": [{"measurement": "solubility", "setting": "[1]", "value": 30, "unit": "mg/mL"}]}, {"smiles": "COc1cccc2c1C(=O)c1c(O)c3c(c(O)c1C2=O)CC(O)(C(=O)CO)CC3OC1OC(C)C(O)C(O)C1F", "note": "[Control, 7-O-(2,6-dideoxy-2-fluoro-α-L-talopyranosyl)adriamycinone, reference compound]", "values": [{"measurement": "solubility", "setting": "[1]", "value": "< 1", "unit": "mg/mL"}]}]}
